Test results from patent US10208056B2, “Condensed tricyclic compounds as protein kinase inhibitors” (FUNDACIÓN DEL SECTOR PÚBLICO ESTATAL CENTRO NACIONAL DE …, priority 2015, dated 2019).

How the values were obtained:
SW620 [1] = assay: Combination assay, SW620; format: cell-based, human; settings: Homo sapiens, SW-620; SW620, chemotherapeutic alone; read-out: Chemo GI50
Procedure: (§1) The combination index (CI) of combinations of certain example compounds and various chemotherapeutic agents in the CellTitetI-Glo® in vitro cell proliferation assays may be tested. A combination index score is calculated by the Chou and Talalay method (CalcuSyn software, Biosoft). The strength of synergy is scored using the ranking system Chou and Talalay: CI less than 0.8 indicates synergy, CI between 0.8 and 1.2 indicates additivity and CI greater than 1.2 indicates antagonism.
(§2) The EC50 values of representative combinations are also calculated. The individually measured EC50 values of the chemotherapeutic agent and the example compounds are compared to the EC50 value of the combination. The cell lines are characterised by tumor type. Combination assays are performed as described in: “Pim 1 kinase inhibitor ETP-45299 suppresses cellular proliferation and synergizes with PI3K inhibition”. Blanco-Aparicio, Carmen; Collazo, Ana Maria Garcia; Oyarzabal, Julen; Leal, Juan F.; Albaran, Maria Isabel; Lima, Francisco Ramos; Pequeno, Belen; Ajenjo, Nuria; Becerra, Mercedes; Alfonso, Patricia; Reymundo, Maria Isabel; Palacios, Irene; Mateos, Genoveva; Quinones, Helena; Corrionero, Ana; Carnero, Amancio; Pevarello, Paolo; Lopez, Ana Rodriguez; Fominaya, Jesus; Pastor, Joaquin; Bischoff, James R. Cancer Letters (Shannon, Ireland) 2011, 300(2), 145-153

DU145 = assay: Combination assay, DU145; format: cell-based; settings: Homo sapiens, DU-145; DU145, chemotherapeutic alone; read-out: Chemo GI50
Procedure: as §1
The EC50 values of representative combinations are also calculated. The individually measured EC50 values of the chemotherapeutic agent and the example compounds are compared to the EC50 value of the combination. The cell lines are characterised by tumor type. […] Blanco-Aparicio, Carmen; Collazo, Ana Maria Garcia; Oyarzabal, Julen; Leal, Juan F.; Albaran, Maria Isabel; Lima, Francisco Ramos; Pequeno, Belen; Ajenjo, Nuria; Becerra, Mercedes; Alfonso, Patricia; Reymundo, Maria Isabel; Palacios, Irene; Mateos, Genoveva; Quinones, Helena; Corrionero, Ana; Carnero, Amancio; Pevarello, Paolo; Lopez, Ana Rodriguez; Fominaya, Jesus; Pastor, Joaquin; Bischoff, James R. Cancer Letters (Shannon, Ireland) 2011, 300(2), 145-153

HCT116 = assay: Combination assay, HCT116; format: cell-based; settings: Homo sapiens, HCT-116; HCT116, chemotherapeutic alone; read-out: Chemo GI50
Procedure: as §1, §2

CDK8/Cyclin C = CDK8/Cyclin C (Homo sapiens (Human), UniProt P49336); assay: CDK8/Cyclin C binding assay (LanthaScreen Eu-Kinase Binding Assay); settings: binding assay
Procedure: The enzyme has been purchase from Invitrogen (PV4402) as a dimer of full-length His-tagged recombinant human proteins.
(§3) Assays were performed in 384-well plates. The final read out was generated using an EnVision plate reader (Perkin-Elmer).

CDK19/Cyclin C = CDK19/Cyclin C (Homo sapiens (Human), UniProt Q9BWU1); assay: CDK19/Cyclin C binding assay (LanthaScreen Eu-Kinase Binding Assay); settings: read-out: CDK19-CYCC IC50
Procedure: The binding assay relies on the LanthaScreen™ Eu-Kinase Binding Assay (Invitrogen).
Assay conditions were as indicated by the kit manufacturers with the following adaptations: • Assay buffer: 50 mM HEPES, pH 7.5, 1 mM EGTA, 0.01% Brij-35, 10 mM MgCl2 • Assay volume: 20 μl • Incubation time and temperature: 60 min at 25° C. • Cdk19-Cyclin C concentration: 2 nM • Tracer concentration: 20 nM • (Eu)-labelled anti-GST antibody concentration: 2 nM • Tested compound: Serial 1:3 dilutions • Final DMSO concentration in the assay: 1%
as §3

Molm13 = assay: In vitro cell proliferation assay (CellTiter-Glo), Molm13; format: cell-based; settings: Homo sapiens, MOLM-13; growth inhibition, semiquantitative; read-out: GI50 Molm13
Procedure: (§4) The in vitro potency of the compounds was measured by the cell proliferation assay CellTiter-Glo® Luminescent Cell Viability Assay, commercially available from Promega Corp., Madison, Wis. This homogeneous assay method is based on the recombinant expression of Coleoptera luciferase (U.S. Pat. No. 5,583,024; U.S. Pat. No. 5,674,713; U.S. Pat. No. 5,700,670) and determines the number of viable cells in culture based on quantitation of the ATP present, an indicator of metabolically active cells (Crouch et al (1993) J. Immunol. Meth. 160:81-88; U.S. Pat. No. 6,602,677). The CellTiterGlo® Assay was conducted […] it amenable to automated high throughput screening (HTS) (Cree et al (1995) AntiCancer Drugs 6:398-404).
(§5) The homogeneous assay procedure involves adding the single reagent (CellTiter-Glo® Reagent) directly to cells cultured in serum-supplemented medium. Cell washing, removal of medium and multiple pipetting steps are not required. The system detects as few as 15 cells/well in a 96-well format in 10 minutes after adding reagent and mixing.
(§6) The homogeneous “add-mix-measure” format results in cell lysis and generation of a luminescent signal proportional to the amount of ATP present. The amount of ATP is directly proportional to the number of cells present in culture. The CellTiter-Glo® Assay generates a “glow-type” luminescent signal, produced by the luciferase reaction, which has a half-life generally greater than five hours, depending on cell type and medium used. Viable cells are reflected in relative luminescence units (RLU). The substrate, Beetle Luciferin, is oxidatively decarboxylated by recombinant firefly luciferase with concomitant conversion of ATP to AMP and generation of photons. The extended half-life eliminates the need to use reagent injectors and provides flexibility for continuous or batch mode processing of multiple plates. This cell proliferation assay can be used with various multiwell formats, e.g. 96 or 384 well format. Data can be recorded by luminometer or CCD camera imaging device. The luminescence output is presented as relative light units (RLU), measured over time.

intracellular CDK8 [2] = target: T1, intracellular CDK8 (Homo sapiens (Human), UniProt P49336); assay: Cellular CDK8 inhibition assay, western blot P-STAT1 (S727) in IFN-γ treated SW620 cells; format: cell-based; settings: SW620, IFNγ treated, semiquantitative; read-out: SW620 P-STAT1(S727) w IFNγ
Procedure: Compounds can be screened for their ability to inhibit intracellular CDK8 using a western blot assay to detect phosphorylation of the CDK8 substrate STAT1 (S727) in IFN-γ treated cells. SW620 cells are plated at 1*10^6 cells per well in 6-well plates (Solmeglas 13118) in RPMI media (Sigma-Aldrich R6504) supplemented with 10% foetal bovine serum (Sigma-Aldrich F7524), Penicillin/Streptomycin solution diluted 1:100 (Gibco 15070-063), and fungizone (Gibco, 15290-018), and allowed to adhere overnight at 37° C. in 5% CO2. Compounds are then added to the cell media from a final concentration of 10 μM in 10-fold serial dilutions and the cells are incubated at 37° C. in 5% CO2. After 1 hour, IFNγ (R&D systems Ref. RYD-285-IF-100) is added to a final concentration of […]. After 3 hours of treatment with IFNγ, the cells are washed in PBS, lysed adding 100 μl of protein lysis buffer (62.5 mM Tris pH 6.8 al 6.25%, 2% SDS y 10% glycerol) incubation 10 minutes at room temperature and heating at 95° C. 10 min. The protein content of the lysates is determined by DC protein assay (Biorad, Ref. 5000116). The proteins are resolved by SDS-PAGE and transferred to nitrocellulose membrane (VWR International eurolab, Ref. 732-4007). The membranes are incubated overnight at 4° C. with antibodies specific for total STAT1 (BD Transduction laboratory #610115), phosphoserine-727 STAT1 (Cell Signaling Ref. 9177) they are washed and then incubated with IRDye800 conjugated anti-mouse (Pierce/Cultek, 35521) and Alexa Fluor 680 goat anti-rabbit IgG secondary antibodies (Invitrogen, A21076). The bands are visualized and quantified using an Odyssey infrared imaging system (Li-Cor Biosciences). The percentage of phosphorylated STAT1 vs total STAT1 in cells treated with IFNγ is taken as hundred percent of phosphorylation. The percentage of STAT1 phosphorylation is finally plotted against concentration for each compound and EC50s for intracellular CDK8 inhibition are calculated using ActivityBase from IDBS.

MV4:11 = assay: In vitro cell proliferation assay (CellTiter-Glo), MV4:11; format: cell-based; settings: Homo sapiens, MV4-11; growth inhibition, semiquantitative; read-out: GI50 MV4:11
Procedure: as §4, §5, §6

SW620 [3] = assay: In vitro cell proliferation assay (CellTiter-Glo), SW620; format: cell-based, human; settings: Homo sapiens, SW-620; growth inhibition, semiquantitative; read-out: GI50 SW620
Procedure: as §4, §5, §6

MDA-MB-231 = assay: In vitro cell proliferation assay (CellTiter-Glo), MDA-MB-231; format: cell-based; settings: Homo sapiens, MDA-MB-231; growth inhibition, semiquantitative; read-out: GI50 MDA-MB-231
Procedure: as §4, §5, §6

intracellular CDK8 [4] = target: T1, intracellular CDK8; assay: Endogenous phosphoSTAT1 inhibition in SW620 cells growing in 10% FBS; format: cell-based; settings: semiquantitative, read-out: SW620 P-STAT1(S727)
Procedure: Endogenous phosphoSTAT1 inhibition can be screened in cells growing in 10% FBS. Cells are plated as described before and treated for 8 h with compounds as described before. Then cells are lysated and phospho STAT1 is evaluated as described before. The percentage of phosphorylated STAT1 vs total STAT1 in cells treated with DMSO is taken as hundred percent of phosphorylation. The percentage of STAT1 phosphorylation is finally plotted against concentration for each compound and EC50s for intracellular CDK8 inhibition are calculated using ActivityBase from IDBS.

Haspin kinase = Haspin kinase (Homo sapiens (Human), UniProt Q8TF76); assay: Haspin kinase assay (ADP-Glo); format: biochemical; settings: ATP 150 μM
Source text: The kinase assay relies on ADP-Glo^KM biochemical kinase assay (Promega). This is a luminescent kinase assay that measures ADP formed from a kinase reaction. Then ADP is converted into ATP, which is transformed into a light signal by Ultra-Glo™ Luciferase. The luminescent signal positively correlates with kinase activity. The assay measures the intrinsic ATPase activity (in the absence of peptidic substrate as phosphate acceptor).
The enzyme was purchase from Invitrogen (PV5708) as the kinase domain of GST tagged recombinant human proteins.
Assay conditions were as indicated by the kit manufacturers with the following adaptations: • Assay buffer: 15 mM HEPES pH 7.4, 20 mM NaCl, 1 mM EGTA, 0.02% Tween 20, 10 mM MgCl2, 0.1 mg/ml BGG • Assay volume: 20 μl • Incubation time and temperature: 60 min at 30° C. • Haspin concentration: 20 nM • ATP concentration: 150 μM • Tested compound: Serial 1:3 dilutions • Final DMSO concentration in the assay: 1%
Assays were performed in 384-well plates. The final read out was generated using an EnVision plate reader (Perkin-Elmer). Luminescent relative units are normalized against the control activity included for each compound (i.e., 100% Haspin activity, without compound) and the percentage of inhibition is calculated.

Chain of CDK8/Cyclin C (P49336 whole entry): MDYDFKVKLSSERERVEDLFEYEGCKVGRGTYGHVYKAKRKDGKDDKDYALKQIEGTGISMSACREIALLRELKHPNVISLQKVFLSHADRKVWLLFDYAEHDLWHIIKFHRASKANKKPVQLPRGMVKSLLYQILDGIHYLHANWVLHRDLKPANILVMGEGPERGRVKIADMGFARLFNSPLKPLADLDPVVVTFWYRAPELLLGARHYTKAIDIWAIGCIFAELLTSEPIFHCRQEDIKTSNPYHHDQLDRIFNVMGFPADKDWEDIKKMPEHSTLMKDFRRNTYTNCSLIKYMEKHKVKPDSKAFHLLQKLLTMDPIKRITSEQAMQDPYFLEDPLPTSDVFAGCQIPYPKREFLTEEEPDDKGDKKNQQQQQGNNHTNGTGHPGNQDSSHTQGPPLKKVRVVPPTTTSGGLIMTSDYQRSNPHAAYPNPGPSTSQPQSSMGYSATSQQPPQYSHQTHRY
Chain of CDK8/Cyclin C (P24863 whole entry partner): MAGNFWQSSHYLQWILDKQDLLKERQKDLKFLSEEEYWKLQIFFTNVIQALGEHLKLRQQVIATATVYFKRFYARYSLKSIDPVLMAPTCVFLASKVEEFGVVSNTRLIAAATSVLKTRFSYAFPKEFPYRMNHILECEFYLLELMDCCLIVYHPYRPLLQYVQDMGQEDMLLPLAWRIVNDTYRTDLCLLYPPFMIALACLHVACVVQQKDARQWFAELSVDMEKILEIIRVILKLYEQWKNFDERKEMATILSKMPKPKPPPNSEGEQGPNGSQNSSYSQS
T1 sequence (P49336 whole entry): as the sequence (P49336 whole entry) above
T1 sequence (P24863 whole entry partner): as the sequence (P24863 whole entry partner) above
T1 sequence (Q93074 whole entry partner): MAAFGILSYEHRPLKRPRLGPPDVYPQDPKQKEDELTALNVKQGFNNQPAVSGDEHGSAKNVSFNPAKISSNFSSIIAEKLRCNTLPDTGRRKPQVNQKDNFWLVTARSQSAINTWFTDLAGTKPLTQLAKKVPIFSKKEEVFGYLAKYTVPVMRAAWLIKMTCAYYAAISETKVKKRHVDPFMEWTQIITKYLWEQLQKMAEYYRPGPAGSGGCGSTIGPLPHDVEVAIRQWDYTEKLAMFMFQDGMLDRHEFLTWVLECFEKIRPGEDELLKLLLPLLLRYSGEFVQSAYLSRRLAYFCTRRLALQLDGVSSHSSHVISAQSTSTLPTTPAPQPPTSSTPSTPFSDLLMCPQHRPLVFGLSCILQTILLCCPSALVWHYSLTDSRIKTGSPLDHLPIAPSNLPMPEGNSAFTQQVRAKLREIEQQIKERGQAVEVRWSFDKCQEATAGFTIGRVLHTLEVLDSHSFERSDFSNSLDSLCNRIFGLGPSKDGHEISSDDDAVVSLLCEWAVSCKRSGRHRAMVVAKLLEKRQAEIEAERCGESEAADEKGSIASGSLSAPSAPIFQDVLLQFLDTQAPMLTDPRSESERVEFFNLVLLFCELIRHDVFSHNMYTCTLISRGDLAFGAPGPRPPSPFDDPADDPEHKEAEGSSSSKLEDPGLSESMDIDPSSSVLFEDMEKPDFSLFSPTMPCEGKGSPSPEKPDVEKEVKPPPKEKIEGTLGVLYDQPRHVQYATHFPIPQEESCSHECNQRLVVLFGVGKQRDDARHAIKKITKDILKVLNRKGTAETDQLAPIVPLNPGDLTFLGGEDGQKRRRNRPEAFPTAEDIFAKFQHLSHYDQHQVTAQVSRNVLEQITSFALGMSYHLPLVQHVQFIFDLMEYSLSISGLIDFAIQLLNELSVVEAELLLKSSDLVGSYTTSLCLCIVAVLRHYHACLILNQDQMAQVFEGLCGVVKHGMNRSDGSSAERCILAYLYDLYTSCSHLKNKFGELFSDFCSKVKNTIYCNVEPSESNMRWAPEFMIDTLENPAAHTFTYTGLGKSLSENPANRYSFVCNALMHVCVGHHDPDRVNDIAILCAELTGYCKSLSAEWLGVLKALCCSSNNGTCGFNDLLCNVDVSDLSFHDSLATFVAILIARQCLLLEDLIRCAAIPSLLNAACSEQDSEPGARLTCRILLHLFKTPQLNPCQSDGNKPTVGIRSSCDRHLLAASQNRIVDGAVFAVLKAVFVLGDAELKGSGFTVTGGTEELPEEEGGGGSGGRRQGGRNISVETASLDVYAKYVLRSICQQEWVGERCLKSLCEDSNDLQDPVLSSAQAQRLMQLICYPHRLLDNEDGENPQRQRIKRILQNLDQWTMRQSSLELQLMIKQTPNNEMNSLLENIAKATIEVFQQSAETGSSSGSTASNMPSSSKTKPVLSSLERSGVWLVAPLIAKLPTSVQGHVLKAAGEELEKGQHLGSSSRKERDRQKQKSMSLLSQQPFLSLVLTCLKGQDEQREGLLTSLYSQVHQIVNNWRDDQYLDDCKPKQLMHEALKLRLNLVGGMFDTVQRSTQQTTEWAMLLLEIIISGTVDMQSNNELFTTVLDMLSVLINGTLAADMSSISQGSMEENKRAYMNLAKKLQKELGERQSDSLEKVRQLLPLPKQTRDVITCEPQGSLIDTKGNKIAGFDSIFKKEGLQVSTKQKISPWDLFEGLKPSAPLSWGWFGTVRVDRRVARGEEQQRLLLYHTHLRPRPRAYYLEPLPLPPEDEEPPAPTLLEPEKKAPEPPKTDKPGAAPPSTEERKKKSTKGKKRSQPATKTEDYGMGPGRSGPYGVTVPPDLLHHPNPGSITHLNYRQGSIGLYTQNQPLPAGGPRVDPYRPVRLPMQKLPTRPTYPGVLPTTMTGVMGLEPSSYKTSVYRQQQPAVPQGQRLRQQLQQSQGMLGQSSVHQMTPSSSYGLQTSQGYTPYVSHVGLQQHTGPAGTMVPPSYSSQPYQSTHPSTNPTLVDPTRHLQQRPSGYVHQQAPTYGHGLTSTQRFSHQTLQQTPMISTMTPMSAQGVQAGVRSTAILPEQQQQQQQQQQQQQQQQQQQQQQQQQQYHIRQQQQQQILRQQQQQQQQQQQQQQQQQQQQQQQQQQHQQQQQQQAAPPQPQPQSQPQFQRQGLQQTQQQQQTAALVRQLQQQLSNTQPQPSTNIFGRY
Chain of CDK19/Cyclin C (Q9BWU1 whole entry): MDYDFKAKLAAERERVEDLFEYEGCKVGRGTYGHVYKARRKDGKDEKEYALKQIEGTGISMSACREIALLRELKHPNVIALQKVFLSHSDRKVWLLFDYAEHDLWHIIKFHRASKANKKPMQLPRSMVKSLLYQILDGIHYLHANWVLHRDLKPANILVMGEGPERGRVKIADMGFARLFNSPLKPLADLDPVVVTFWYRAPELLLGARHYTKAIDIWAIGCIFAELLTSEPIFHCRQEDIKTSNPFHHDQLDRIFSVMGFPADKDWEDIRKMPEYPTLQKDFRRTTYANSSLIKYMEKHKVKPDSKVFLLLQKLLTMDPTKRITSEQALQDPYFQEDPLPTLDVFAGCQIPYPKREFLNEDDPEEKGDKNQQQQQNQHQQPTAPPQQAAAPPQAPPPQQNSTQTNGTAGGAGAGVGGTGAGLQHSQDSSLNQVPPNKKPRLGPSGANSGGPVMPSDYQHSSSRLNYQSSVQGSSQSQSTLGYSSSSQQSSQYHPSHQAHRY
Chain of CDK19/Cyclin C (P24863 whole entry partner): as the sequence (P24863 whole entry partner) above
Chain of Haspin kinase (Q8TF76 484-798): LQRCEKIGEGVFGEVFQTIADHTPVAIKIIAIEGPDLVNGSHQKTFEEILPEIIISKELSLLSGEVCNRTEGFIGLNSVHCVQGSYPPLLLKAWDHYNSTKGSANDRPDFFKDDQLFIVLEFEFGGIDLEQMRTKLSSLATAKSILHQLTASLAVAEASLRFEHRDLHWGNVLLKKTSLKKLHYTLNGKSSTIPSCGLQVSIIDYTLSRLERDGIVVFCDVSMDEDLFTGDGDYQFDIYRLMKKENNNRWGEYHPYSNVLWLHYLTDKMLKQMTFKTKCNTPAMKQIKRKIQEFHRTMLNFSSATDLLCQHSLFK

| Compound | GI50 (SW620 [1]) [nM] | GI50 (DU145) [nM] | GI50 (HCT116) [nM] | IC50 (CDK8/Cyclin C) [nM] | IC50 (CDK19/Cyclin C) [nM] | GI50 (Molm13) [nM] | EC50 (intracellular CDK8 [2]) [nM] | GI50 (MV4:11) [nM] | GI50 (SW620 [3]) [nM] | GI50 (MDA-MB-231) [nM] | EC50 (intracellular CDK8 [4]) [nM] | IC50 (Haspin kinase) [nM] |
| --- | --- | --- | --- | --- | --- | --- | --- | --- | --- | --- | --- | --- |
| COc1cc(Nc2ncc3c(n2)-c2ccc(Cl)cc2C(c2c(F)cccc2OC)=NC3)ccc1C(=O)O [Alisertib, alisertib, reference compound] | 500 | 12500 | 12500 |  |  |  |  |  |  |  |  |  |
| NC(=O)c1cc2c([nH]1)-c1ccncc1O[C@@H]2C1CCCCC1 (single isomer, unassigned) [Example 69] |  |  |  | 19.3 | 87.3 | < 1000 | < 500 | < 1000 | < 1000 | 1000 to 10000 |  |  |
| CC(=O)O[C@H]1C(=O)[C@@]2(C)[C@H]([C@H](OC(=O)c3ccccc3)[C@]3(O)C[C@H](OC(=O)[C@H](O)[C@@H](NC(=O)c4ccccc4)c4ccccc4)C(C)=C1C3(C)C)[C@]1(OC(C)=O)CO[C@@H]1C[C@@H]2O [Taxol, paclitaxel, reference compound] | 5 |  | 5 |  |  |  |  |  |  |  |  |  |
| NC(=O)c1cc2c([nH]1)-c1ccncc1OC21CCC1 [Example 15] |  |  |  | 1.96 | 1.41 | < 1000 |  | < 1000 | 10000 to 100000 | 1000 to 10000 | < 500 | 15.9 |
